“Also recorded” adds a separate entry of the source. Like-named read-outs stand apart in the source and are kept apart here.
What was measured:
[1] = Subcutaneous plasma and sciatic nerve pharmacokinetic studies in mice; format: in vivo; conditions: 10 mg/kg equivalent s.q., 10-120 min post dose
Experimental: Bioanalysis of parent and intact prodrug in plasma and tissues: Prior to extraction, frozen samples were thawed on ice. For plasma, 50 μL of the sample was transferred into siliconized microcentrifuge tubes. For sciatic nerves, the samples were weighed in a 1.7 mL tubes and homogenized in 5× the volume of methanol. The calibration curves were prepared using naïve plasma and sciatic nerves in a concentration range of 50-10000 pmol/g or pmol/mL. Sample preparation involved a single liquid extraction by addition of 300 μL of methanol with internal standard (losartan 200 nM in methanol), followed by vortexing for 30 s and then centrifugation at 10,000×g for 10 min. Supernatant (about 250 μL) was transferred and evaporated to dryness at 40° C. under a gentle stream of nitrogen. The residue was reconstituted with 50 μL of 30% acetonitrile and analysed by LC/MS/MS.
Chromatographic analysis was performed using an Accela™ ultra high-performance system consisting of an analytical pump, and an autosampler coupled with TSQ Vantage mass spectrometer (Thermo Fisher Scientific Inc., Waltham, MA). […] The mobile phase used was composed of 0.1% formic acid in acetonitrile and 0.1% formic acid in H2O with gradient elution, starting with 10% (organic) linearly increasing to 99% up to 2.5 min, maintaining at 99% (2.5-3.5 min) and reequlibrating to 10% by 4.5 min. The total run time for each analyte was 4.5 min. The mass transitions (M−H)− used for Compound 50 were 280.077>175.168, 203.156; and for losartan were 420.895>127.040, 179.108.

[2] = In vitro plasma metabolite identification studies; format: in vitro ADME; conditions: 10 μM, 37° C., 60 min incubation
Experimental: Plasma stability studies were conducted in mouse plasma as previously described. (Majer, et al., 2016) Compound 1 and prodrugs (12, 23 and 30) (10 μM) were spiked in plasma and incubated in an orbital shaker at 37° C. At zero and 60 min post incubation, 100 μL aliquots of the mixture in triplicate were removed and the reaction quenched by addition of two times the volume of ice cold acetonitrile spiked with the internal standard (losartan 5 μM). The samples were vortexed for 30 s and centrifuged at 12000 g for 10 min. Supernatant (50 μL) was diluted with 50 μL water and transferred to a 250 μL polypropylene vial sealed with a Teflon cap. Prodrug disappearance and metabolite identification were analyzed over time using an Agilent 1260 HPLC coupled to a ESITOF Agilent 6530 with Agilent Jet Stream Technology (Agilent Technologies, Santa Clara, CA). Samples were separated on a Waters 1.7 μm, C18, 100×2.1 column at a flow rate 0.3 mL/min. […] The mass spectrometry instrument was operated in a negative or positive (for JV-2946) ion mode with a voltage of +3.00 kV applied to the capillary. The temperature, the flow rate of the nitrogen drying gas, the pressure of the nitrogen nebulizing gas, the temperature, and the flow rate of the sheath gas were set at 325° C., 10 L/min, 40 psi, 390° C., and 11/min, respectively.

[3] = In vitro metabolic stability in human plasma; format: in vitro ADME; conditions: 37° C.
Experimental: (§1) For metabolic stability, plasma (mouse, and human) and liver microsomes (mouse and human) were used. For stability, prodrugs (10 μM) were spiked in each matrix and incubated in an orbital shaker at 37° C. At predetermined times (0, 30 and 60 min), 100 μL aliquots of the mixture in triplicate were removed and the reaction quenched by addition of three times the volume of ice cold acetonitrile spiked with the internal standard (losartan 5 μM). The samples were vortexed for 30 s and centrifuged 12000 g for 10 min. 50 μL supernatant diluted with 50 μL water was transferred to a 250 μL polypropylene vial sealed with a Teflon cap. Prodrug disappearance was monitored over time using a liquid chromatography and tandem mass spectrometry (LC/MS/MS) method as described below.
(§2) For LC/MS/MS, prodrugs were separated with Thermo Scientific Accela UPLC system coupled to Accela open autosampler on an Agilent C18 (100×2.1 mm id) UPLC column. The autosampler was temperature controlled and operating at 10° C. […] The column effluent was monitored using TSQ Vantage triple-quadrupole mass spectrometric detector, equipped with an electrospray probe set in the positive ionization mode. […]
(§3) For quantification of compound remaining, disappearance of prodrugs was measured from ratio of peak areas of analyte to IS. Percentage remaining was calculated in the following manner: […]

[4] = In vitro metabolic stability in mouse plasma; format: in vitro ADME; conditions: 37° C.
Experimental: as §1, §2, §3

[5] = tested on: rat chronic constriction injury (CCI) model of neuropathic pain; assay: Chronic constrictive injury (CCI) model of neuropathic pain, thermal hyperalgesia; format: in vivo
Description: All experimental protocols were approved by the Institutional Animal Care and Use Committee at Johns Hopkins University (Baltimore, MD) and adhered to all of the applicable institutional and governmental guidelines for the humane treatment of laboratory animals. Male Sprague-Dawley rats (200-250 g; n=10-15 per group) were subjected to peripheral neuropathy injury by constriction of the sciatic nerve performed according to methods described previously. (Novakova, et al., 2016; Bennett, et al., 1988; Attal, et al., 1990) In brief, the common sciatic nerve was exposed and 4 ligatures (4.0 chromic gut) tied loosely around it with 1 mm spacing. Wound clips were used to close wounds and animals were returned to home cages for recovery. Hyperalgesia testing was initiated 10 days post-surgery. Pain sensitivity was assessed by determining withdrawal latencies in response to a constant thermal stimulus directed to the plantar surface of the hind paw using a Basile Plantar apparatus (Ugo Basile, Vaarese, Italy) according to the method described by Hargreaves et al. (Hargreaves, et al., 1988) Apparatus was calibrated so that normal rats respond to the stimulus within 15 sec of application. Withdrawal latency (i.e., the time taken for the rat to withdraw its paw from the heat source) was measured to the nearest 0.1 sec. The “difference in score” was calculated by subtracting the average latency of the paw on the non-ligated versus ligated side. Each animal was tested during two experimental sessions per week, with three days allowed to elapse between test sessions. Test agents, prodrug 12 (3 mg/kg equivalent of 1), or gabapentin (50 mg/kg and 100 mg/kg po) as a positive control were dosed daily throughout the study via oral gavage and one hour before testing on experimental days. Statistical analysis with students t-test was used to determine differences between control and treatment group.

[6] = cited from earlier work; for oral bioavailability: background statement
rhGCPII = rhGCPII (Homo sapiens, UniProt Q04609); assay: GCPII inhibition, radioenzymatic assay with 3H-NAAG; format: biochemical; conditions: for IC50: rhGCPII, 3H-NAAG, pH 8.0, read-out: IC50, inhibition potency against GCPII
Chain of rhGCPII (Q04609 whole entry): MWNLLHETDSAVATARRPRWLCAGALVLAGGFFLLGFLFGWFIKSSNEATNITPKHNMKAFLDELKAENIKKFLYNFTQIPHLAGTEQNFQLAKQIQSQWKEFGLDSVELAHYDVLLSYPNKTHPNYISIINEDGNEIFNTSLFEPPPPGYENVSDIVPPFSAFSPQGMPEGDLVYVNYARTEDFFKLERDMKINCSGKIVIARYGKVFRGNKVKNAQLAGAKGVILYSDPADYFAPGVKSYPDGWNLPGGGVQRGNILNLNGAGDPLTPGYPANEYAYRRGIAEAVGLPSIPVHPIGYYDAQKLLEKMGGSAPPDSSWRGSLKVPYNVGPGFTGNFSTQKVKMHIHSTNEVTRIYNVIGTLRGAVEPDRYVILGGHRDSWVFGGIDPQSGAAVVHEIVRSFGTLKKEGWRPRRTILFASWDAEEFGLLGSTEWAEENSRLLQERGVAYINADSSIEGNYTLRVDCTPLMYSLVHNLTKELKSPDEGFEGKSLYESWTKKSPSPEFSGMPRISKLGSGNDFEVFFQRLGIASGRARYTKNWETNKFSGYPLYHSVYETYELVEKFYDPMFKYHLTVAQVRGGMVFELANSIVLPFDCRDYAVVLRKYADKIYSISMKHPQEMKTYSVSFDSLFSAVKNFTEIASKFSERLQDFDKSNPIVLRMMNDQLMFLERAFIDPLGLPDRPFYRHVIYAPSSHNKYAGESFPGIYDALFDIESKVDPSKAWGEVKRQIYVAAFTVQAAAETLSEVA
Experimental: Inhibition constants of prodrugs were determined using the radioenzymatic assay with 3HNAAG (radiolabeled at the terminal glutamate) as has been previously described (Novakova, et al., J. Med. Chem, 2016). Briefly, rhGCPII (30 ng/mL) was preincubated in the presence of inhibitors at varying concentrations, in 20 mM Tris, 150 mM NaCl, pH 8.0, for 15 min at 37° C. in the total volume of 80 μL. The reaction was initiated by the addition of 40 μL of the mixture of 0.31 μM NAAG (Sigma) and 15 nM 3H-NAAG (50 Ci/mmol in Tris buffer, PerkinElmer) to the total reaction volume of 120 μL. Following 20 min incubation, the reaction was terminated by addition of 120 μL of potassium phosphate (200 Mm), EDTA (50 Mm) and β-mercaptoethanol (2Mm), pH 7.4. The released glutamate was separated by ion-exchange chromatography and quantified by liquid scintillation counting. GraphPad Prism software (GraphPad Software, San Diego, CA, USA), was used for data fitting and IC50 values were calculated from the inhibition curves where applicable.

[7] = tested on: rat chronic constriction injury (CCI) model of neuropathic pain; conditions: cited from earlier work
[8] = Stability testing under GCPII enzyme assay conditions; format: physicochemical; conditions: 30 m in aqueous buffer; pH 8.0
Experimental: Compound 1 and its six prodrugs 7, 12, 17, 23, 25, and 30 were tested for their inhibition potency against GCPII. […] Considering structural data on the compound 1/GCPII complex reported previously (Novakova, et al., J. Med. Chem, 2016) the lack of inhibitory potency of the prodrugs is likely due to the inability of the modified hydroxamate function to chelate active-site zinc ions.

## CC(=O)Oc1ccc(CONC(=O)CCC(Cc2ccc(C(=O)OCOC(=O)OC(C)C)cc2)C(=O)O)cc1 (stereo not drawn) [Compound 30, 5-(((4-Acetoxybenzyl)oxy)amino)-2-(4-((((isopropoxycarbonyl)oxy)methoxy)carbonyl)benzyl)-5-oxopentanoic acid]
[1]
  plasma (systemic) levels of active compound 50 after subcutaneous dosing: high systemic levels
  sciatic nerve exposure of active compound 50 after subcutaneous dosing: excellent nerve exposure
[2]
  stability / prodrug disappearance in mouse plasma: completely hydrolyzed

## CC(=O)Oc1ccc(CONC(=O)CCC(Cc2ccc(C(=O)O)cc2)C(=O)O)cc1 (stereo not drawn) [Compound 12, 4-(5-(((4-Acetoxybenzyl)oxy)amino)-2-carboxy-5-oxopentyl)benzoic acid]
[1]
  plasma (systemic) levels of active compound 50 after subcutaneous dosing: high systemic levels
  sciatic nerve exposure of active compound 50 after subcutaneous dosing: excellent nerve exposure
[3]
  metabolic stability in human plasma: rapidly metabolized
[4]
  metabolic stability in mouse plasma: rapidly metabolized
[2]
  stability / prodrug disappearance in mouse plasma: lost the peak corresponding to 12
[5]; oral 4.6 mg/kg/day (equivalent of 3 mg/kg/day of 1)
  response latency to thermal stimulus, sham-operated side: no significant effect on absolute latency; also recorded: did not affect the response latency
[5]; oral daily, 3 mg/kg dose equivalent of 1 (50), 4.6 mg/kg/day for 12
  antinociceptive effect on thermal hyperalgesia, ligated side: analgesic efficacy comparable to dose of 10 mg/kg of 1; also recorded: significantly reduced thermal hyperalgesia; also recorded: analgesic efficacy superior to that of oral daily doses of 10 mg/kg of 1; also recorded: efficacious; also recorded: significantly attenuated CCI-induced hyperalgesic state
[5]; oral, 3 mg/kg/day equivalent of 1
  first day with significantly reduced thermal hyperalgesia: 4 days

## O=C(O)CCC(CP(=O)(O)O)C(=O)O (stereo not drawn) [Compound 2-PMPA, 2-phosphonomethyl pentanedioic acid]
[6]
  oral bioavailability: negligible oral availability

## NCC1(CC(=O)O)CCCCC1 [gabapentin, reference compound]
[5]; oral 50 mg/kg/day
  antinociceptive effect on thermal hyperalgesia, ligated side: did not significantly attenuate the hyperalgesic state
[5]; oral 100 mg/kg/day, 100 mg/kg/day
  antinociceptive effect on thermal hyperalgesia, ligated side: significantly reversed allodynia; also recorded: significantly attenuated CCI-induced hyperalgesic state

## O=C(CCC(Cc1ccc(C(=O)O)cc1)C(=O)O)NO (stereo not drawn) [Compound 1, 4-Carboxy-α-[3-(hydroxyamino)-3-oxopropyl]-benzenepropanoic acid]
rhGCPII
  IC50: 44 nM
[2]
  stability / prodrug disappearance in mouse plasma: completely stable
[7]; 10 mg/kg/day oral dosing, previously shown
  analgesic effects in the CCI model: analgesic effects
[7]; oral 10 mg/kg/day (Novakova, et al., 2016)
  first day with significantly reduced thermal hyperalgesia: 8 days
[6]; Novakova, et al., 2016
  distribution to sciatic nerves: good distribution to sciatic nerves
[6]
  oral bioavailability: poor oral bioavailability

## Cc1oc(=O)oc1CONC(=O)CCC(Cc1ccc(C(=O)O)cc1)C(=O)O (stereo not drawn) [Compound 17, 4-(2-Carboxy-5-(((5-methyl-2-oxo-1,3-dioxol-4-yl)methoxy)amino)-5-oxopentyl)benzoic acid]
rhGCPII; compared to compound 1
  fold less potent versus 1 in inhibiting GCPII activity: 12 fold
rhGCPII
  IC50: 540 nM
[8]
  stability under GCPII enzyme assay conditions: partial hydrolysis to 1

## CCOC(=O)c1ccc(CC(CCC(=O)NOCc2ccc(OC(C)=O)cc2)C(=O)O)cc1 (stereo not drawn) [Compound 23, 5-(((4-Acetoxybenzyl)oxy)amino)-2-(4-(ethoxycarbonyl)benzyl)-5-oxopentanoic acid]
[2]
  stability / prodrug disappearance in mouse plasma: complete loss of 23

Reference: patent US11866394B2, “Prodrugs of hydroxamate-based GCPII inhibitors” (The Johns Hopkins University, priority 2016, dated 2024)
